{
  "source": "patent US7759345B2",
  "about": "“Antitumoral derivatives of ET-743” (priority 2001, dated 2010)",
  "key": {"SK-MEL-28": {"test_system": "SK-MEL-28", "test": "Inhibition of cells growth by colorimetric assay (SRB), SK-MEL-28", "type": "cell-based", "conditions": "SRB, 48 hours exposure; for GI50 / CC50: Homo sapiens, SK-MEL-28, 48 h; for GI50 / TGI MEL-28: MEL-28; for GI50: read-out: GI50 MEL-28; for CC50: read-out: LC50 MEL-28, MEL-28", "summary_of_the_method": "(§1)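 Sulforhodamine B protein-stain readout (490 nm) after 48 h drug exposure, with GI, TGI and LC parameters calculated from triplicate means. Cells seeded at 5×10^3 per well, allowed 18 h drug-free attachment; dose range 10 to 10^−8 μg/ml, vehicle DMSO/EtOH/PBS (0.5:0.5:99).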"}, "MDA-MB-231": {"test_system": "MDA-MB-231", "test": "Inhibition of cells growth by colorimetric assay (SRB), MDA-MB-231", "type": "cell-based", "conditions": "for CC50 / GI50: Homo sapiens; for CC50: MDA-MB-231, 48 h, read-out: LC50 MB-231; for GI50: MDA-MB-231, read-out: GI50 MB-231; for GI50 / TGI MB-231: MB-231, SRB, 48 hours exposure", "experimental": "(§2) 2°.—Inhibition of Cells Growth by Colorimetric Assay.\n(§3) A colorimetric type of assay, using sulforhodamine B (SRB) reaction has been adapted for a quantitative measurement of cell growth and viability [following the technique described by Philip Skehan, et al. (1990), New colorimetric cytotoxicity assay for anticancer drug screening, J. Natl. Cancer Inst., 82:1107-1112]\n(§4) This form of the assay employs 96 well cell culture microplates of 9 mm diameter (Faircloth, 1988; Mosmann, 1983). Most of the cell lines are obtained from American Type Culture Collection (ATCC) derived from different human cancer types.\n(§5) Cells are maintained in RPMI 1640 10% FBS, supplemented with 0.1 g/l penicillin and 0.1 g/l streptomycin sulfate and then incubated at 37° C., 5% CO2 and 98% humidity. For the experiments, cells were harvested from subconfluent cultures using trypsin and resuspended in fresh medium before plating.\n(§6) Cells are seeded in 96 well microtiter plates, at 5×10^3 cells per well in aliquots of 195 μl medium, and they are allowed to attach to the plate surface by growing in drug free medium for 18 hours. Afterward, samples are added in aliquots of 5 μl in a ranging from 10 to 10^−8 μg/ml, dissolved in DMSO/EtOH/PBS (0.5:0.5:99). After 48 hours exposure, the antitumor effect are measured by the SRB methodology: cells are fixed by adding 50 μl of cold 50% (wt/vol) trichloroacetic acid (TCA) and incubating for 60 minutes at 4° C. Plates are washed with deionized water and dried. One hundred μl of SRB solution (0.4% wt/vol in 1% acetic acid) is added to each microtiter well and incubated for 10 minutes at room temperature. Unbound SRB is removed by washing with 1% acetic acid. Plates are air dried and bound stain is solubilized with Tris buffer. Optical densities are read on a automated spectrophotometric plate reader at a single wavelength of 490 nm.\n(§7) The values for mean+/−SD of data from triplicate wells are calculated. Some parameters for cellular responses can be calculated: GI=growth inhibition, TGI=total growth inhibition (cytostatic effect) and LC=cell killing (cytotoxic effect).\n(§8) Obtained results may predict the usefulness of a certain drug as a potential cancer treatment. For this technique, compounds which show GI50 values smaller than 10 μg/ml are selected to continue with further studies. GI50's data allow to predict that not only could a drug be cystostatic, but also it could have a potential in terms of tumor reduction."}, "HT-29": {"test_system": "HT-29", "test": "Inhibition of cells growth by colorimetric assay (SRB), HT-29", "type": "cell-based", "conditions": "SRB, 48 hours exposure; for GI50 / LC50 (concentration for 50% cell killing): Homo sapiens, HT-29, 48 h; for TGI HT-29 / GI50: HT-29; for GI50: read-out: GI50 HT-29; for LC50 (concentration for 50% cell killing): read-out: LC50 HT-29, HT-29", "summary_of_the_method": "as §1"}, "MCF-7": {"test_system": "MCF-7", "test": "Inhibition of cells growth by colorimetric assay (SRB), MCF-7", "type": "cell-based", "conditions": "for CC50 / GI50: Homo sapiens; for CC50: MCF7, 48 h, read-out: LC50 MCF; for GI50: MCF7, read-out: GI50 MCF; for GI50 / TGI MCF: MCF, SRB, 48 hours exposure", "experimental": "as §2, §3, §4, §5, §6, §7, §8"}, "SW620": {"test_system": "SW620", "test": "Inhibition of cells growth by colorimetric assay (SRB), SW620", "type": "cell-based", "conditions": "for LC50 / GI50: Homo sapiens; for LC50: SW-620, 48 h, read-out: LC50 SW-620; for GI50 / TGI SW-620: SW-620, SRB, 48 hours exposure; for GI50: read-out: GI50 SW-620", "experimental": "as §2, §3, §4, §5, §6, §7, §8"}, "A-549": {"test_system": "A-549", "test": "Inhibition of cells growth by colorimetric assay (SRB), A-549", "type": "cell-based", "conditions": "SRB, 48 hours exposure; for GI50 / LC50 (concentration for 50% cell killing): Homo sapiens, A549, 48 h; for TGI A-549 / GI50: A-549; for GI50: read-out: GI50 A-549; for LC50 (concentration for 50% cell killing): read-out: LC50 A-549, A-549", "summary_of_the_method": "as §1"}, "DU-145": {"test_system": "DU-145", "test": "Inhibition of cells growth by colorimetric assay (SRB), DU-145", "type": "cell-based", "conditions": "SRB, 48 hours exposure; for GI50 / CC50: Homo sapiens, DU-145, 48 h; for TGI DU-145 / GI50: DU-145; for GI50: read-out: GI50 DU-145; for CC50: read-out: LC50 DU-145, DU-145", "summary_of_the_method": "as §1"}, "A-498": {"test_system": "A-498", "test": "Inhibition of cells growth by colorimetric assay (SRB), A-498", "type": "cell-based", "conditions": "for TGI A-498 / GI50: SRB, 48 hours exposure, A-498; for LC50 / GI50: Homo sapiens; for LC50: A498, 48 h, read-out: LC50 A-498; for GI50: A498, read-out: GI50 A-498", "experimental": "as §2, §3, §4, §5, §6, §7, §8"}},
  "data": [
    {"smiles": "COc1cc2c(cc1OC(=O)CCc1ccccc1)CCN[C@]21CS[C@@H]2c3c(OC(C)=O)c(C)c4c(c3[C@H](COC1=O)N1C2[C@H]2c3c(cc(C)c(OC)c3O)C[C@@H]([C@@H]1O)N2C)OCO4", "note": "(some centres unmarked) [Compound 72]", "values": [
      {"measurement": "GI50", "setting": "SK-MEL-28", "value": 2.24, "unit": "nM"},
      {"measurement": "CC50", "setting": "SK-MEL-28", "value": 7.83, "unit": "nM"},
      {"measurement": "TGI MEL-28", "setting": "SK-MEL-28", "value": "3.36E-09"},
      {"measurement": "CC50", "setting": "MDA-MB-231", "value": 11.2, "unit": "nM"},
      {"measurement": "GI50", "setting": "MDA-MB-231", "value": 2.24, "unit": "nM"},
      {"measurement": "TGI MB-231", "setting": "MDA-MB-231", "value": "3.36E-09"},
      {"measurement": "TGI HT-29", "setting": "HT-29", "value": "7.83E-09"},
      {"measurement": "GI50", "setting": "HT-29", "value": 2.24, "unit": "nM"},
      {"measurement": "LC50 (concentration for 50% cell killing)", "setting": "HT-29", "value": 11.2, "unit": "nM"},
      {"measurement": "CC50", "setting": "MCF-7", "value": 11.2, "unit": "nM"},
      {"measurement": "GI50", "setting": "MCF-7", "value": 2.24, "unit": "nM"},
      {"measurement": "TGI MCF", "setting": "MCF-7", "value": "4.47E-09"},
      {"measurement": "Toxicity Data Skeletal", "setting": "Skeletal", "value": "1.32E-08"},
      {"measurement": "LC50", "setting": "SW620", "value": 11.2, "unit": "nM"},
      {"measurement": "GI50", "setting": "SW620", "value": 2.24, "unit": "nM"},
      {"measurement": "TGI SW-620", "setting": "SW620", "value": "3.36E-09"},
      {"measurement": "TGI A-549", "setting": "A-549", "value": "3.36E-09"},
      {"measurement": "GI50", "setting": "A-549", "value": 1.12, "unit": "nM"},
      {"measurement": "LC50 (concentration for 50% cell killing)", "setting": "A-549", "value": 7.83, "unit": "nM"},
      {"measurement": "Toxicity Data Myelo", "setting": "Myelo", "value": "2.15E-08"},
      {"measurement": "TGI DU-145", "setting": "DU-145", "value": "3.36E-09"},
      {"measurement": "GI50", "setting": "DU-145", "value": 2.24, "unit": "nM"},
      {"measurement": "CC50", "setting": "DU-145", "value": 8.95, "unit": "nM"},
      {"measurement": "Toxicity Data Kidney", "setting": "Kidney", "value": "1.85E-08"},
      {"measurement": "TGI A-498", "setting": "A-498", "value": "4.47E-09"},
      {"measurement": "LC50", "setting": "A-498", "value": 11.2, "unit": "nM"},
      {"measurement": "GI50", "setting": "A-498", "value": 2.24, "unit": "nM"},
      {"measurement": "Toxicity Data Liver", "setting": "Liver", "value": "1.55E-08"},
      {"measurement": "Toxicity Data Heart", "setting": "Heart", "value": "3.78E-08"}
    ]},
    {"smiles": "COc1cc2c(cc1OC(=O)CCCl)CCN[C@]21CS[C@@H]2c3c(OC(C)=O)c(C)c4c(c3[C@H](COC1=O)N1C2[C@H]2c3c(cc(C)c(OC)c3O)C[C@@H]([C@@H]1O)N2C)OCO4", "note": "(some centres unmarked) [Compound 73]", "values": [
      {"measurement": "GI50", "setting": "SK-MEL-28", "value": 0.822, "unit": "nM"},
      {"measurement": "CC50", "setting": "SK-MEL-28", "value": 3.52, "unit": "nM"},
      {"measurement": "TGI MEL-28", "setting": "SK-MEL-28", "value": "9.39E-10"},
      {"measurement": "CC50", "setting": "MDA-MB-231", "value": 1.17, "unit": "nM"},
      {"measurement": "GI50", "setting": "MDA-MB-231", "value": 0.235, "unit": "nM"},
      {"measurement": "TGI MB-231", "setting": "MDA-MB-231", "value": "4.69E-11"},
      {"measurement": "TGI HT-29", "setting": "HT-29", "value": "7.04E-09"},
      {"measurement": "GI50", "setting": "HT-29", "value": 0.939, "unit": "nM"},
      {"measurement": "LC50 (concentration for 50% cell killing)", "setting": "HT-29", "value": 10.6, "unit": "nM"},
      {"measurement": "CC50", "setting": "MCF-7", "value": 11.7, "unit": "nM"},
      {"measurement": "GI50", "setting": "MCF-7", "value": 0.704, "unit": "nM"},
      {"measurement": "TGI MCF", "setting": "MCF-7", "value": "3.52E-09"},
      {"measurement": "LC50", "setting": "SW620", "value": 9.39, "unit": "nM"},
      {"measurement": "GI50", "setting": "SW620", "value": 0.352, "unit": "nM"},
      {"measurement": "TGI SW-620", "setting": "SW620", "value": "1.17E-09"},
      {"measurement": "TGI A-549", "setting": "A-549", "value": "2.35E-09"},
      {"measurement": "GI50", "setting": "A-549", "value": 0.352, "unit": "nM"},
      {"measurement": "LC50 (concentration for 50% cell killing)", "setting": "A-549", "value": 5.87, "unit": "nM"},
      {"measurement": "TGI DU-145", "setting": "DU-145", "value": "3.52E-10"},
      {"measurement": "GI50", "setting": "DU-145", "value": 0.235, "unit": "nM"},
      {"measurement": "CC50", "setting": "DU-145", "value": 0.939, "unit": "nM"},
      {"measurement": "TGI A-498", "setting": "A-498", "value": "7.04E-10"},
      {"measurement": "LC50", "setting": "A-498", "value": 3.52, "unit": "nM"},
      {"measurement": "GI50", "setting": "A-498", "value": 0.352, "unit": "nM"}
    ]}
  ]
}
